# Test results: ChEMBL document CHEMBL1141537, “Design and synthesis of dihydroindazolo[5,4-a]pyrrolo[3,4-c]carbazole oximes as potent dual inhibitors of TIE-2 and VEGF-R2 receptor tyrosine kinases” (Bioorg Med Chem Lett, 2008)
# Experiments:
# Angiopoietin-1 receptor = Angiopoietin-1 receptor (Homo sapiens, UniProt Q02763); assay: Inhibition of human recombinant TIE2 by HTRF assay
# A-375 [1] = assay: Cytotoxicity against human A375 cells; type: functional, cell-based
# A-375 [2] = assay: Antitumor activity against human A375 cells xenografted mouse assessed as partial tumor regression at 10 mg/kg, po bid relative to control; type: functional
# A-375 [3] = assay: Antitumor activity against human A375 cells xenografted mouse assessed as tumor growth inhibition at 10 mg/kg, po bid relative to control; type: functional; set-up: scale not given: the % may be the effect or the level left
# Mus musculus = assay: Toxicity in A375 cells xenografted mouse melanoma model assessed as mortality; type: organism-based, A-375; details: in vivo
# Insulin receptor = Insulin receptor (Homo sapiens, UniProt P06213); assay: Inhibition of IR
# [4] = target: Vascular endothelial growth factor receptor 2 (Homo sapiens, UniProt P35968); assay: Inhibition of human recombinant VEGFR2 by HTRF assay
# [5] = Half life in rat at 1 mg/kg, iv; type: ADME, organism-based; set-up: dose 1 mg/kg, route intravenous; details: in vivo
# [6] = Clearance in rat at 1 mg/kg, iv; type: ADME, organism-based; set-up: dose 1 mg/kg, route intravenous; details: in vivo
# [7] = AUC (0 to infinity) in rat at 1 mg/kg, iv; type: ADME, organism-based; set-up: time infinity, dose 1 mg/kg, route intravenous; details: plasma
# [8] = Volume of distribution in rat at 1 mg/kg, iv; type: ADME, organism-based; set-up: dose 1 mg/kg, route intravenous; details: in vivo
# [9] = Oral bioavailability in rat at 5 mg/kg; type: ADME, organism-based; details: in vivo
# [10] = Half life in rat at 5 mg/kg, po; type: ADME, organism-based; set-up: dose 5 mg/kg, route oral; details: in vivo
# [11] = AUC (0 to infinity) in rat at 5 mg/kg, po; type: ADME, organism-based; set-up: time infinity, dose 5 mg/kg, route oral; details: plasma
# [12] = Cmax in rat at 5 mg/kg, po; type: ADME, organism-based; set-up: dose 5 mg/kg, route oral; details: in vivo
# [13] = target: Proto-oncogene tyrosine-protein kinase Src (Homo sapiens, UniProt P12931); assay: Inhibition of c-src
# [14] = target: Epidermal growth factor receptor (Homo sapiens, UniProt P00533); assay: Inhibition of EGFR
# [15] = target: Vascular endothelial growth factor receptor 1 (Homo sapiens, UniProt P17948); assay: Inhibition of VEGFR1
# [16] = target: Vascular endothelial growth factor receptor 3 (Homo sapiens, UniProt P35916); assay: Inhibition of VEGFR3
# HUVEC [17] = assay: Inhibition of VEGF-induced HUVEC cells capillary tube formation relative to control; type: functional, cell-based; details: Homo sapiens
# HUVEC [18] = assay: Cytotoxicity against HUVEC cells; type: cell-based; details: human
# Rattus norvegicus = species: Rattus norvegicus; assay: Ex vivo antiangiogenic activity in rat aortic ring explant assessed as inhibition of microvessel outgrowth after 10 days; type: functional; details: Aorta, 240 h
# Angiopoietin-1 receptor, sequence (Q02763 whole entry): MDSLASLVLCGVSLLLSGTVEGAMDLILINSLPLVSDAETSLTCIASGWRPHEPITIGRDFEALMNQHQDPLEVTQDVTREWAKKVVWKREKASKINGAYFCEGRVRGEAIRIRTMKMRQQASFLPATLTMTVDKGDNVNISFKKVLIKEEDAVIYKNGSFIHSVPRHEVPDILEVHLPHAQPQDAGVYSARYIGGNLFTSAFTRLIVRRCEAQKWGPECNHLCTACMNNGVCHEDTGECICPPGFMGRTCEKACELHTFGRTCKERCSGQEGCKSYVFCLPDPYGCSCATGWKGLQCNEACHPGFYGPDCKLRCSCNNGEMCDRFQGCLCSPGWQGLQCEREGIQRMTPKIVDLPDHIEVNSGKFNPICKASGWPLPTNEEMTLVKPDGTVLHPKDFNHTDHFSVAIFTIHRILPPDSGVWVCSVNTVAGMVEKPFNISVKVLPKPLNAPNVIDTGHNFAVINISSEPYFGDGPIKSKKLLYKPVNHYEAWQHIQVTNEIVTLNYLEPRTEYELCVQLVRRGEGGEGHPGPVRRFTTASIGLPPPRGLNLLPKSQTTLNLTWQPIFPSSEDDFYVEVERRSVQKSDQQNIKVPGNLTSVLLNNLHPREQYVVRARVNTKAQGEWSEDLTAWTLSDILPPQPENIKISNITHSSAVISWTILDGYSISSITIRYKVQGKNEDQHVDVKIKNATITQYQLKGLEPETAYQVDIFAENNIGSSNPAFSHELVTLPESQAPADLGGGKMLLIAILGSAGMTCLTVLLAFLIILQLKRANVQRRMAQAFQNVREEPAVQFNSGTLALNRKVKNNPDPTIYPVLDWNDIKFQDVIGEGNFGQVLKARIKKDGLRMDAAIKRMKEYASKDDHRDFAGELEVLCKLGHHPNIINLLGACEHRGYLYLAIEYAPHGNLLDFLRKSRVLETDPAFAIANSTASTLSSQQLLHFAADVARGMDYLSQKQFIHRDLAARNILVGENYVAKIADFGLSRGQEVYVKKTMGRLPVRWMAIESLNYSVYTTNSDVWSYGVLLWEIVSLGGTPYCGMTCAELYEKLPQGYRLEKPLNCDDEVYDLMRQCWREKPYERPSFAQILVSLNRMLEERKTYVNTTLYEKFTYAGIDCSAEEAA
# Proto-oncogene tyrosine-protein kinase Src, sequence (P12931 2-536 limits assumed): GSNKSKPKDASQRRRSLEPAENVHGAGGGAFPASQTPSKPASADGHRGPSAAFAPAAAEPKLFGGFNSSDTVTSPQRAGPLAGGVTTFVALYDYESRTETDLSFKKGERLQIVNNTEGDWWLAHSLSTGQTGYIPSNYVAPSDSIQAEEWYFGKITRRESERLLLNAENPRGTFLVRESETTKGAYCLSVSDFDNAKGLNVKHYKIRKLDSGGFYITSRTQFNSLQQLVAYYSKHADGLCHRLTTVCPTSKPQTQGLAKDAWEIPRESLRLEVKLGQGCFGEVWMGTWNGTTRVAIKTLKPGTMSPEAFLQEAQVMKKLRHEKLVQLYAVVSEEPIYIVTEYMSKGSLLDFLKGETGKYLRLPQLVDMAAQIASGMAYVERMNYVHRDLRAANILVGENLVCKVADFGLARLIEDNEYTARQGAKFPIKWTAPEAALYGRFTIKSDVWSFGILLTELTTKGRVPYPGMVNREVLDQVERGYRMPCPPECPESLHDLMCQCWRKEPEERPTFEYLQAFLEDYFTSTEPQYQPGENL
# Vascular endothelial growth factor receptor 2, sequence (P35968 whole entry): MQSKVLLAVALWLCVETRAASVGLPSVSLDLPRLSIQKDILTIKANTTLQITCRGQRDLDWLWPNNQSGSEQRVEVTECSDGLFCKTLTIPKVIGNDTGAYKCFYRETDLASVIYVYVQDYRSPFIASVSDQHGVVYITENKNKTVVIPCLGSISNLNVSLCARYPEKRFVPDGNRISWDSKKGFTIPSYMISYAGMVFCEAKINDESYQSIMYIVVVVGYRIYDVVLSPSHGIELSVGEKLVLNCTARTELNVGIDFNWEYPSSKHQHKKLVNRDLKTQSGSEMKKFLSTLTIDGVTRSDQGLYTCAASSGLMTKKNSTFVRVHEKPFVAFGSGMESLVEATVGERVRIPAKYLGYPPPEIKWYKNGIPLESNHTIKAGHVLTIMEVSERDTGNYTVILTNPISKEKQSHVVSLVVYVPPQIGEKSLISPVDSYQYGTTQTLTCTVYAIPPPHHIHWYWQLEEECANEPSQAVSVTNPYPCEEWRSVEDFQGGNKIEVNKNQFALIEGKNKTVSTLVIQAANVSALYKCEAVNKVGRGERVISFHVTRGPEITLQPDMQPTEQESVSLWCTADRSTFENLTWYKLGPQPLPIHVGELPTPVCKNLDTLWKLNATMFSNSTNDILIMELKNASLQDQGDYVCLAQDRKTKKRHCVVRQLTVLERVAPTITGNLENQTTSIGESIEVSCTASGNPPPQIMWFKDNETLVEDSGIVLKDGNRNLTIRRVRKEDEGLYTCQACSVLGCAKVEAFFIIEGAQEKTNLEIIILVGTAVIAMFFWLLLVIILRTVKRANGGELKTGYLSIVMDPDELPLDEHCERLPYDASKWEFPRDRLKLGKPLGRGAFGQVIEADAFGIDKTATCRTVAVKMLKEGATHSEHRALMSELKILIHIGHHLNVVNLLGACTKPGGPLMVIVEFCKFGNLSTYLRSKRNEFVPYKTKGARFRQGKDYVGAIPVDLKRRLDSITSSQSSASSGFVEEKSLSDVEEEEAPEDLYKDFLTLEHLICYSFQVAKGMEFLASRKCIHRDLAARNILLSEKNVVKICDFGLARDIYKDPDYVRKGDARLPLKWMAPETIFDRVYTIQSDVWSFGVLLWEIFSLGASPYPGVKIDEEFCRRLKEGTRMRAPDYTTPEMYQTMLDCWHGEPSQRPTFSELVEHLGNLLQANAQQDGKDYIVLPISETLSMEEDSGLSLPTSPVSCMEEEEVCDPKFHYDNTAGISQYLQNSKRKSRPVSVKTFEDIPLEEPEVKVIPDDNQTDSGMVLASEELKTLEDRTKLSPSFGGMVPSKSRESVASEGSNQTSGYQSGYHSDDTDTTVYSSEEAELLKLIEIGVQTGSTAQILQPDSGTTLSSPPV
# Insulin receptor, sequence (P06213 28-758 limits assumed): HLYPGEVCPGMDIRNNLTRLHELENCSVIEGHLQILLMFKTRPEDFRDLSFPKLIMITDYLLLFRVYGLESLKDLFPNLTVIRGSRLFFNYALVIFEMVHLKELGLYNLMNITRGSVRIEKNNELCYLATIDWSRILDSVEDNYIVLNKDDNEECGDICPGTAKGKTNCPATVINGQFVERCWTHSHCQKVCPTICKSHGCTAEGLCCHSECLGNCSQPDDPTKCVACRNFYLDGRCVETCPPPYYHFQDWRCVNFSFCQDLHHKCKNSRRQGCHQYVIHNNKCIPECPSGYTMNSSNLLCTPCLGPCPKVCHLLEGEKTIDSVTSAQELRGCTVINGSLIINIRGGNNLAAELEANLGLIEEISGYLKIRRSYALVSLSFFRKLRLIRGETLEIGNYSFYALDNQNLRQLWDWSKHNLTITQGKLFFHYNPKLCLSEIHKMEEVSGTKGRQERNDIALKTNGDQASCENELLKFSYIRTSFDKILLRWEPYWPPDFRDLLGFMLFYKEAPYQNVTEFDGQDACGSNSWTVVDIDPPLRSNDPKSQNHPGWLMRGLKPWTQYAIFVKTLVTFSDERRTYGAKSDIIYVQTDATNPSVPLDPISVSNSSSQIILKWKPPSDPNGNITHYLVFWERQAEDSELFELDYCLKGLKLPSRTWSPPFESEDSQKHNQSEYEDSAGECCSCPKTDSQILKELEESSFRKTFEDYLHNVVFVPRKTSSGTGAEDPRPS
# Insulin receptor, sequence (P06213 763-1382 limits assumed): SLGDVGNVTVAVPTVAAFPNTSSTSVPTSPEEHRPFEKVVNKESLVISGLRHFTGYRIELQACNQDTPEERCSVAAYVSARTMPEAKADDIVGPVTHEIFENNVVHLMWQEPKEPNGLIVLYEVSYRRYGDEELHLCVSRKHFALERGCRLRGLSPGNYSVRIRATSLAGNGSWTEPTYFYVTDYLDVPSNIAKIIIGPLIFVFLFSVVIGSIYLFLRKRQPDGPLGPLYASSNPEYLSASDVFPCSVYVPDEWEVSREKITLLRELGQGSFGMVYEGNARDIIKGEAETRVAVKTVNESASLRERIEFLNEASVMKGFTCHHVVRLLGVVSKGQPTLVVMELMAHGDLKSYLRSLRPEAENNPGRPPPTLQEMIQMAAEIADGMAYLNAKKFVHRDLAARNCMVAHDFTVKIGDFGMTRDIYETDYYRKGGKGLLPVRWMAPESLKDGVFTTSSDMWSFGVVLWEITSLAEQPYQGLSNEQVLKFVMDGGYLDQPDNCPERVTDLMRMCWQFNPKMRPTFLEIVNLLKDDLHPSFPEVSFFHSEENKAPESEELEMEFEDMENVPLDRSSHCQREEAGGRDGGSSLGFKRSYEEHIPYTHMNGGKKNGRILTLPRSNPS
structure (smiles),measurement,setting,value
C/C(=N\OC(C)(C)C)c1ccc2[nH]c3c4c(c5c(c3c2c1)CNC5=O)-c1cn(C)nc1CC4,IC50,Angiopoietin-1 receptor,93 nM
CO/N=C(\C)c1ccc2c(c1)c1c3c(c4c(c1n2C)CCc1nn(C)cc1-4)C(=O)NC3,IC50,Angiopoietin-1 receptor,347 nM
CCn1c2ccc(/C(C)=N/OC)cc2c2c3c(c4c(c21)CCc1nn(C)cc1-4)C(=O)NC3,IC50,Angiopoietin-1 receptor,300 nM
CO/N=C/c1ccc2[nH]c3c4c(c5c(c3c2c1)CNC5=O)-c1cn(C)nc1CC4,IC50,Angiopoietin-1 receptor,148 nM
CCO/N=C/c1ccc2[nH]c3c4c(c5c(c3c2c1)CNC5=O)-c1cn(C)nc1CC4,IC50,Angiopoietin-1 receptor,264 nM
CO/N=C(\C)c1ccc2[nH]c3c4c(c5c(c3c2c1)CNC5=O)-c1cn(C)nc1CC4,IC50,Angiopoietin-1 receptor,71 nM
CO/N=C(/c1ccc2[nH]c3c4c(c5c(c3c2c1)CNC5=O)-c1cn(C)nc1CC4)C(C)C,IC50,Angiopoietin-1 receptor,264 nM
CCO/N=C(/c1ccc2[nH]c3c4c(c5c(c3c2c1)CNC5=O)-c1cn(C)nc1CC4)C(C)C,IC50,Angiopoietin-1 receptor,92 nM
C/C(=N\OC(C)C)c1ccc2[nH]c3c4c(c5c(c3c2c1)CNC5=O)-c1cn(C)nc1CC4,IC50,Angiopoietin-1 receptor,28 nM
CCCn1c2ccc(/C(C)=N/OC)cc2c2c3c(c4c(c21)CCc1nn(C)cc1-4)C(=O)NC3,IC50,Angiopoietin-1 receptor,30 nM
CO/N=C(\C)c1ccc2c(c1)c1c3c(c4c(c1n2CC(C)C)CCc1nn(C)cc1-4)C(=O)NC3,EC50,A-375 [1],70 nM
same,Activity,A-375 [2],38%
same,Activity,A-375 [3],80%
same,Activity,Mus musculus,Non-toxic
same,IC50,Insulin receptor,> 1000 nM
same,IC50,Angiopoietin-1 receptor,30 nM
same,IC50,[4],7 nM
same,half-life,[5],1.4 h
same,clearance,[6],6.5 mL/min/kg
same,AUC(0-inf),[7],2760 ng·h/mL
same,Vd,[8],0.8 L/kg
same,bioavailability,[9],66%
same,half-life,[10],6.5 h
same,AUC(0-inf),[11],9060 ng·h/mL
same,Cmax,[12],874 ng/mL
same,IC50,[13],43 nM
same,IC50,[14],> 1000 nM
same,IC50,[15],8 nM
same,IC50,[16],10 nM
same,EC50,HUVEC [17],1 nM
same,Activity,HUVEC [18],Non-toxic
same,EC50,Rattus norvegicus,3 nM
C/C(=N\OCC(C)C)c1ccc2c(c1)c1c3c(c4c(c1n2CC(C)C)CCc1nn(C)cc1-4)C(=O)NC3,IC50,Angiopoietin-1 receptor,23 nM
C/C(=N\OCC(C)C)c1ccc2[nH]c3c4c(c5c(c3c2c1)CNC5=O)-c1cn(C)nc1CC4,IC50,Angiopoietin-1 receptor,10 nM
C/C(=N\OCC(C)C)c1ccc2c(c1)c1c3c(c4c(c1n2C(C)C)CCc1nn(C)cc1-4)C(=O)NC3,IC50,Angiopoietin-1 receptor,46 nM
Cn1cc2c(n1)CCc1c-2c2c(c3c1[nH]c1ccccc13)CNC2=O,IC50,Angiopoietin-1 receptor,1300 nM
COc1ccc(-c2oc3ncnc(N)c3c2-c2ccc(NC(=O)Nc3c(F)cccc3C(F)(F)F)cc2)cc1,IC50,Angiopoietin-1 receptor,2 nM
CO/N=C(\C)c1ccc2c(c1)c1c3c(c4c(c1n2C(C)C)CCc1nn(C)cc1-4)C(=O)NC3,IC50,Angiopoietin-1 receptor,97 nM
CCO/N=C(\C)c1ccc2c(c1)c1c3c(c4c(c1n2C(C)C)CCc1nn(C)cc1-4)C(=O)NC3,IC50,Insulin receptor,> 1000 nM
same,IC50,Angiopoietin-1 receptor,26 nM
same,IC50,[4],4 nM
same,half-life,[5],2 h
same,clearance,[6],7.4 mL/min/kg
same,AUC(0-inf),[7],2300 ng·h/mL
same,Vd,[8],1.3 L/kg
same,bioavailability,[9],31%
same,half-life,[10],3.2 h
same,AUC(0-inf),[11],3610 ng·h/mL
same,Cmax,[12],637 ng/mL
same,IC50,[13],14 nM
same,IC50,[14],> 1000 nM
CCn1c2ccc(/C(C)=N/OCC(C)C)cc2c2c3c(c4c(c21)CCc1nn(C)cc1-4)C(=O)NC3,IC50,Angiopoietin-1 receptor,45 nM
CCCCn1c2ccc(/C(C)=N/OC)cc2c2c3c(c4c(c21)CCc1nn(C)cc1-4)C(=O)NC3,IC50,Angiopoietin-1 receptor,108 nM
C/C(=N\OC(C)C)c1ccc2c(c1)c1c3c(c4c(c1n2CC(C)C)CCc1nn(C)cc1-4)C(=O)NC3,IC50,Angiopoietin-1 receptor,52 nM
C/C(=N\O)c1ccc2[nH]c3c4c(c5c(c3c2c1)CNC5=O)-c1cn(C)nc1CC4,IC50,Angiopoietin-1 receptor,44 nM
CCO/N=C(\C)c1ccc2[nH]c3c4c(c5c(c3c2c1)CNC5=O)-c1cn(C)nc1CC4,IC50,Angiopoietin-1 receptor,23 nM
CCO/N=C(\C)c1ccc2c(c1)c1c3c(c4c(c1n2CC(C)C)CCc1nn(C)cc1-4)C(=O)NC3,IC50,Angiopoietin-1 receptor,25 nM
C/C(=N\OC(C)C)c1ccc2c(c1)c1c3c(c4c(c1n2C(C)C)CCc1nn(C)cc1-4)C(=O)NC3,IC50,Angiopoietin-1 receptor,66 nM
